The molecules below were run on human PBMC cytotoxicity, percent of cell control (assay: cytotoxicity in human PBMC, dose response, cytotoxicity control for HIV-1 antiviral lead project, cell-based, PBMC assay companion, set 2 (AID 504571)).

| SMILES | CC50 |
| --- | --- |
| Cc1c2c(=O)n(-c3nc4ccccc4s3)nc-2cc(O)n1CCC(C)C | 45 µM |
| Cc1c2c(=O)n(-c3nc4ccccc4s3)nc-2cc(O)n1Cc1ccc(F)cc1 | 19.1 µM |
| Cc1c2c(=O)n(-c3nc4ccccc4s3)nc-2cc(O)n1CCc1cccs1 | 40.8 µM |
| Cc1c2c(=O)n(-c3nc4ccccc4s3)nc-2cc(O)n1Cc1ccccc1Cl | 35.6 µM |
| Cc1c2c(=O)n(-c3nc4ccccc4s3)nc-2cc(O)n1Cc1cccnc1 | 2.24 µM |
| Cc1c2c(=O)n(-c3nc4ccccc4s3)nc-2cc(O)n1Cc1ccccc1 | 21 µM |
| COc1ccccc1Cn1c(O)cc2nn(-c3nc4ccccc4s3)c(=O)c-2c1C | 29.6 µM |
| COc1ccc(CCn2c(O)cc3nn(-c4nc5ccccc5s4)c(=O)c-3c2C)cc1 | 49.8 µM |
| Cc1c2c(=O)n(-c3nc4ccccc4s3)nc-2cc(O)n1Cc1ccncc1 | 2.64 µM |
| Cc1c2c(=O)n(-c3nc4ccccc4s3)nc-2cc(O)n1CCc1ccc(O)cc1 | 2.55 µM |
| Cc1c2c(=O)n(-c3nc4ccccc4s3)nc-2cc(O)n1C1CC1 | 5.72 µM |
| COc1ccc(Cn2c(O)cc3nn(-c4nc5ccccc5s4)c(=O)c-3c2C)cc1 | 19.1 µM |
| Cc1c2c(=O)n(-c3nc4ccccc4s3)nc-2cc(O)n1Cc1cccs1 | 14.2 µM |
